Assay results taken from US7863313B2, “Methods for the treatment of inflammatory diseases” (Cortical PTY LTD, priority 2003, dated 2011).
Marks after values point to notes of the source that are not given here.

Columns and labels:
[1] = test system: MIF-induced proliferation of S112 human fibroblasts; experiment: MIF-induced human fibroblast proliferation (3H-thymidine incorporation); format: cell-based
Experimental: The activity of a compound of formula (I) was studied in a bioassay utilising MIF-induced proliferation of human dermal fibroblasts. […] S112 human dermal fibroblasts were propagated in RPMI/10% foetal calf serum (FCS). Prior to experimentation, cells were seeded at 10^5 cells/ml in RPMI/0.1% BSA for 18 hours. Cells were treated with recombinant human macrophage migration inhibitory factor (MIF) 50 ng/ml and/or a compound of the invention at a concentration of 1 nM. The compound was combined with MIF at time point −30 minutes, prior to adding to cell culture at time point zero. At time point zero, culture medium was replaced with RPMI/10% FCS and treatments administered. At time point 30 hours, cells were pulsed with 1 μCi ^3H-thymidine. At time point 48 hours, cells were harvested using a semi-automated cell harvester. The radioactivity incorporated into DNA was determined by liquid scintillation counting, with results expressed as ^3H-thymidine incorporation.

[2] = test system: IL-1 induced COX-2 expression; experiment: MIF-dependent IL-1 induced fibroblast cyclooxygenase-2 expression (flow cytometry); format: cell-based, human; conditions: for Mean % inhibition COX2 expression: S112 fibroblasts, IL-1 0.1 ng/ml, 6 h
Text: The activity of the compounds of formula (I) were further studied in a bioassay utilising MIF-dependent activation of human dermal fibroblasts. Sampey et al have shown that induction of the expression of cyclooxygenase-2 (COX-2) by the cytokine interleukin 1 (IL-1) is dependent upon the presence of MIF, i.e. can be prevented using specific anti-MIF monoclonal antibody ^(17). IL-1-induced COX-2 expression is therefore a MIF-dependent event.
S112 human dermal fibroblasts were propagated in RPMI/10% foetal calf serum (FCS). Prior to experimentation, cells were seeded at 2×10^5 cells/ml in RPMI/0.1% BSA for 18 hours. […] After 6 hours, cells were collected and intracellular COX-2 protein determined by permeabilisation flow cytometry, as described by Sampey et al ^(18). Cells permeabilised with 0.2% saponin were sequentially labelled with a mouse anti-human COX-2 monoclonal antibody and with sheep-anti-mouse F(ab)2 fragment labelled with fluoroscein isothiocyanate. Cellular fluorescence was determined using a flow cytometer. At least 5000 events were counted for each reading, each of which was performed in duplicate, and the results expressed in mean fluorescence intensity (MFI) after subtraction of negative control-labelled cell fluorescence.
In Table 2 and FIG. 2, the effect of each concentration of 2-(2-hydroxyethoxy)-2-(4-hydroxy-3-methylphenyl)-1,3-dioxolane (Compound 1) was determined by subtracting the IL-1+ compound-treated cell MFI from the IL-1-treated cell MFI, and expressed as % inhibition.

[3] = test system: IL-1 induced COX-2 expression; experiment: Combination of MIF-antagonist with glucocorticoid: IL-1 induced fibroblast COX-2 expression; format: cell-based, human
Experimental: S112 human dermal fibroblasts were propagated in RPMI/10% foetal calf serum (FCS). Prior to experimentation, cells were seeded at 2×10^5 cells/ml in RPMI/0.1% BSA for 18 hours. Cells were treated with compound at 1-100 μM and 30 minutes later with recombinant human IL-1 (0.1 ng/ml). After 6 hours, cells were collected and intracellular COX-2 protein determined by permeabilisation flow cytometry, as described by Sampey et al ^(18). Cells permeabilised with 0.2% saponin were sequentially labelled with a mouse anti-human COX-2 monoclonal antibody and with sheep-anti-mouse F(ab)2 fragment labelled with fluoroscein isothiocyanate. Cellular fluorescence was determined using a flow cytometer. At least 5000 events were counted for each reading, each of which was performed in duplicate, and the results expressed in mean fluorescence intensity (MFI) after subtraction of negative control-labelled cell fluorescence.
The above in vitro assay (Biological Example 2) for analysing the effect of MIF antagonists on IL-1 induced COX-2 expression was performed using 2-(2-hydroxyethoxy)-2-(4′-hydroxy-3′-methylphenyl)-1,3-dioxolane (Compound 1) (50 μM), dexamethasone (1 nM) or a combination of dexamethasone (1 nM) and Compound 1 (50 μM). COX-2 expression was expressed as the mean fluorescence intensity (MFI) as measured by flow cytometry, after deduction of the MFI for control-labelled samples, as described by Sampey et al. ^(18).

[4] = test system: S112 human dermal fibroblasts; experiment: Cytotoxicity: apoptosis by annexin V and propidium iodide flow cytometry; format: cell-based; conditions: 50 μM versus control-treated cells; FIG. 7
Text: A valuable characteristic of a therapeutic material is a lack of toxicity. The compounds of formula (I) may have low toxicity towards cells. To examine this in vitro, the ability of 2-(2-hydroxyethoxy)-2-(4-hydroxy-3-methylphenyl)-1,3-dioxolane (Compound 1) to induce apoptosis (“programmed cell death) was investigated. A lack of cytotoxicity would be evidenced by the finding of equivalent proportions of apoptotic and viable cells in control- and compound-treated cells.
To examine the cytotoxicity of compounds of formula (I), S112 human dermal fibroblasts were exposed to a therapeutic concentration (50 μM) of 2-(2-hydroxyethoxy)-2-(4-hydroxy-3-methylphenyl)-1,3-dioxolane (Compound 1) or vehicle (control) and analysed for apoptosis by flow cytometric analysis of annexin V and propidium iodide staining, as described by Leech et al. ^(19). Toxicity was assessed by analysis of apoptosis using flow cytometric detection of cell surface Annexin V binding and propidium iodide staining. At least 5000 events were analysed for each experiment. Cells positive for both Annexin V and propidium iodide were designated as apoptotic and cells negative for both Annexin V and propidium iodide were designated as viable. Results are expressed as the percentage (%) of cells with each of these labels.

[5] = test system: antigen-specific T cell activation; experiment: MIF-dependent antigen-specific T cell activation (splenocytes, 3H-thymidine); format: cell-based, mouse; conditions: 100 nM-10 μM; mBSA 10 μg/ml; spleen cells of immunized C57Bl/6 mice; P<0.05; FIG. 5
Text: The activity of compounds of formula (I) was further studied in a bioassay utilising MIF-dependent activation of murine T cell activation. The activation of T lymphocytes in response to exposure to a recall antigen is known to be dependent on the presence of MIF, i.e. can be prevented using specific anti-MIF monoclonal antibody^(7). Antigen-induced T cell activation is therefore a MIF-dependent phenomenon.
Splenocytes were obtained by Hank's buffered saline flushing of spleens obtained from C57Bl/6 mice previously immunized with methylated bovine serum albumin (mBSA, Sigma Chemical Co., Castle Hill, Australia). Mice were immunized on day 0 with 200 μg mBSA emulsified in 0.2 ml of Freund's complete adjuvant (FCA) injected subcutaneously into the flank skin. On day 7, the mice received 100 μg mBSA/0.1 ml FCA by intradermal injection at the base of the tail. Spleens were removed on day 14 after first immunisation and a single cell suspension was prepared in DMEM containing 5% FCS and 0.05% 2-mercaptoethanol. […] The T cell proliferation response was determined by measuring the amount of [^3H] thymidine incorporation during the final 18 hr. The cells were harvested and radioactivity incorporation into the DNA was measured with a Wallac 1409 liquid scintillation counter (Pharmacia, Turku, Finland).

SMILES: Cc1cc(C2(OCCO)OCCO2)ccc1O [Compound 1, 2-(2-hydroxyethoxy)-2-(4-hydroxy-3-methylphenyl)-1,3-dioxolane]
- Mean cpm (3H-thymidine incorporation) ([1]; S112 cells, MIF 50 ng/ml + compound 1 nM, untreated 3245, MIF alone 4415, n=9): 2994* cpm
- inhibition of MIF-induced S112 human fibroblast proliferation ([1]; compound 1 nM pre-incubated with MIF, P<0.05): significantly inhibited
- Mean % inhibition COX2 expression ([2]; 0.01 μM): 10.5%
- Mean % inhibition COX2 expression ([2]; 0.1 μM): 13.2%
- Mean % inhibition COX2 expression ([2]; 1 μM): 15.6* %
- Mean % inhibition COX2 expression ([2]; 10 μM): 19.5* %
- reduction in IL-1 induced COX-2 expression ([2]; 50 μM, P<0.01, FIG. 2): significant reduction
- Mean % inhibition COX2 expression ([2]; 50 μM): 31.4* %
- dose dependence of reduction in COX-2 expression ([2]; Table 2 and FIG. 3): dose-dependent reduction
- Mean COX-2 expression (MFI) ([3]; IL-1 + dexamethasone 1 nM + Compound 1 50 μM, control 0.7400, IL-1 49.37): 6.013* MFI
- enhancement of dexamethasone inhibition of IL-1-induced COX-2 expression ([3]; dexamethasone 1 nM + Compound 1 50 μM versus dexamethasone alone, P<0.05): significantly greater inhibition
- apoptotic cell numbers (Annexin V and propidium iodide positive) [4]: No significant increase
- viable cell numbers (Annexin V and propidium iodide negative) [4]: no significant decrease

SMILES: OCCOC1(c2ccc(O)cc2)OCCO1 [Compound 2, 2-(2-hydroxyethoxy)-2-(4-hydroxyphenyl)-1,3-dioxolane]
- inhibition of IL-induced COX-2 expression, MFI ([2]; IL-1+cpd2 versus IL-1, P<0.05, FIG. 4): Significant inhibition
- reduction in antigen-specific T cell activation [5]: significant dose-dependent reduction
